Where a SMILES comes first, the peptide text is derived from it. [ ]: non-standard residue; d: D form. The star is where a group is joined. pNA = O=[N+]([O-])c1ccc(N*)cc1; Sar = CNCC(=O)O
The compounds below were run against T1, human a-thrombin (Homo sapiens, UniProt P00734) (assay: In vitro assay for determining proteinase inhibition (human a-thrombin, hydrolysis of p-nitroanilide or fluorogenic substrate)). Details: 25° C., 0.05 M TRIS buffer pH 7.4, 0.15 M NaCl, 0.1% PEG.
T1 construct: human a-thrombin
Type: biochemical
Procedure: In vitro assay for determining proteinase inhibition
(§1) Assays of human a-thrombin and human trypsin were performed at 25° C. in 0.05 M TRIS buffer pH 7.4, 0.15 M NaCl, 0.1% PEG. Trypsin assays also contained 1 mM CaCl2.
Concentrations of stock solutions of Z-GPR-afc were determined from measurements of absorbance at 380 nm of the 7-amino-4-trifluoromethylcoumarin produced upon complete hydrolysis of an aliquot of the stock solution by thrombin.
Activity assays were performed by diluting a stock solution of substrate at least tenfold to a final concentration ≤0.5 Km into a solution containing enzyme or enzyme equilibrated with inhibitor. Times required to achieve equilibration between enzyme and inhibitor were determined in control experiments. Initial velocities of product formation in the absence (Vo) or presence of inhibitor (Vi) were measured. Assuming competitive inhibition, and that unity is negligible compared Km /[S], […] (where [S], [I], and e respectively represent the total concentrations, of substrate, inhibitor and enzyme), the equilibrium constant (Ki) for dissociation of the inhibitor from the enzyme can be obtained from the dependence of Vo /Vi on [I] shown in equation 1.

Point of comparison: `Cc1nc(N)ccc1CNC(=O)Cn1c(C)cc2c(c1=O)NC(=O)CC2`, Ki 350 nM. Against it:
- Cc1nc(N)ccc1CNC(=O)Cn1c(C)cc2c(c1=O)NC(=O)C(Cc1cccc(F)c1)C2 (stereo not drawn) — 320-fold lower, 1.1 nM
- CC[C@H](C)CC1Cc2cc(C)n(CC(=O)NCc3ccc(N)nc3C)c(=O)c2NC1=O (stereo partly drawn) — 670-fold lower, 0.52 nM
- Cc1nc(N)ccc1CNC(=O)Cn1c(C)cc2c(c1=O)NC(=O)C(Cc1cc(F)ccc1F)C2 (stereo not drawn) — 550-fold lower, 0.64 nM
- Cc1nc(N)ccc1CNC(=O)Cn1c(C)cc2c(c1=O)NC(=O)C(Cc1cc(F)cc(F)c1)C2 (stereo not drawn) — 230-fold lower, 1.5 nM

The compounds below were run on human trypsin (assay: Substrate hydrolysis by human trypsin (Km)). Details: p-nitroanilide substrate, 405 nm, 25° C., pH 7.4, 1 mM CaCl2.
Type: biochemical
Procedure: as §1

For `CNCC(=O)N1CCC[C@H]1C(=O)N[C@@H](CCCNC(=N)N)C(=O)Nc1ccc([N+](=O)[O-])cc1` [sar-PR-pna, sarcosine-Pro-Arg-p-nitroanilide] (H-[Sar]-Pro-Arg-pNA), the Km was 59 µM.
